In patent US11739051B2 (ALEXION PHARMA INTERNATIONAL OPERATIONS UNLIMITED COMPANY, priority 2018, dated 2023):

Tests used:
[1] = Specific surface area (SSA) by BET; format: physicochemical; conditions: N2 adsorption
Description: As used herein, the ten “SSA (m^2/g)” refers to specific surface area (SSA) measured in square meters (m^2) per gram (g). SSA was measured by BET according to the method described in Example 4.
Specific Surface Area (SSA) was analyzed by BET on a surface area analyzer (Gemini 2375™ from Micromeritics Instrument Corp.). […] Each sample was filled into a glass tube and “degassed” at 30° C. for 1 h under continuous N2 (g) flow in order to remove all loosely bound molecules on the external surface and from potential channels in the material. Simultaneously, the saturation pressure for the liquid nitrogen used was determined. After weighing the degassed samples, the degassed samples were inserted into the measuring position at −196° C. (boiling point for liquid nitrogen), evacuated and then exposed to a range of partial pressures basically covering the whole range from almost zero to close to 1 under adsorption mode. The lower pressures were used for SSA determination. Higher pressures were used for potential micro pore determination. In order to ascribe the right amount of nitrogen to the substances, the free volume in the tubes was measured with helium gas prior to nitrogen adsorption. The appropriate thickness values for the adsorbed layer (above the point where no absorption took place in micro pores anymore) was determined from a t-plot and subsequently used to correct the calculation by separating the adsorbed nitrogen molecules into either absorbed into potential pore like structures (the “micro pore volume”) or adsorbed onto actual external surface.

[2] = Particle size distribution (PSD) by LALLS; format: physicochemical; conditions: for Dx (10)/μm: 10th percentile of particle size, paraffin oil dispersion; for Dx (50)/μm: 50th percentile of particle size; for Dx (90)/μm: 90th percentile of particle size; for >100 μm (%): percentage of particles greater than 100 μm; for <2 μm (%): percentage of particles less than 2 μm
Description: As used herein, the term “Dx(10)/μm” refers to the 10th percentile of particle size (D10) measured in micrometers (μm). As used herein, the terms “Dx(50)/μm” or “median particle size” refer to the 50th percentile particle size (D50). As used herein, the term “Dx(90)/μm” refers to the 90th percentile of particle size (D90).
As used herein, the term “<2 μm (%)” refers to the percentage (%) of particles that are less than 2 μm. As used herein, the term “>100 μm (%)” refers to the percentage (%) of particles that are greater than 100 μm. As used herein, the percentage of particles refers to the percentage based on the population, or number, of particles.
The sample dispersion medium was paraffin oil. […] This was repeated until a stable reading was obtained.
The PSD measurements were done using the following settings: background measurement time, 20 seconds(s); sample measurement time, 20 s; dispersant refractive index, 1.45; particle refractive index, N/A (Fraunhofer), absorption, N/A (Fraunhofer); stirrer speed, 2500 rpm; analysis model: general purpose.

[3] = Stability of crystalline particles after forced degradation at 40° C. and 75% relative humidity (HPLC impurities); format: physicochemical; conditions: listed as A-2
Description: Stability analysis was performed on crystalline particles after forced degradation at 40° C. and 75% relative humidity over 3 days.

[4] = Crystallinity by X-ray powder diffraction (XRPD); format: physicochemical; conditions: AREAcryst/AREAtotal*100, listed as A-2
Description: Crystallinity was analyzed by X-ray powder diffraction (XRPD) using a Cu-anode (45 kV/40 mA), a Kα-1 monochromator and silicon-based position-sensitive 1D detector (Malvern Panalytical, X'Celerator™). The 2-theta range was 2-35° using a scan speed of 0.02°/s and a step size of 0.017°. Slow spinning sample holders were used. […] Each sample was smeared out using a Teflon bar, producing a flat powdered surface on zero background wafers of silicon (Si). The measurements were performed using a programmable incident divergence slit.
The crystallinity was evaluated using Panalytical HighScore Plus™ software (The HighScore suite; T. Degen, M. Sadki, E. Bron, U. König, G. Nénert; Powder Diffraction, Volume 29, Supplement S2, December 2014, pp S13-S18). This method is based on the following steps: 1) Calculation of the net area of the signals from the crystalline part of the sample. This area is defined as “AREAcryst.” 2) Calculation of the net total area, that is, area from the amorphous “humps” plus the net peak area from step 1. This area is defined as “AREAtotal.” In the calculation of above areas, an automatic correction of the background is made by using data collected for an empty sample holder. 3) The percent crystallinity of the sample is calculated as: (AREAcryst/AREAtotal)*100.
XRPD crystallinity results for each batch are reported Table 1.

[5] = isolated solid after 5 g lab-scale Process C crystallization
Description: Purity was analyzed by reverse-phase high-performance liquid chromatography (HLPC) using Agilent® 1100 series HPLC system and a reversed-phase column (Aquasil C18, 4.6×250 mm, 5 μm) at 25°, with the absorbance detector set to 242 or 301 nm. […] The amount of BC-TTM and impurities in the sample solution was determined by the regression line and the area of the standard peaks in the sample chromatogram.
(§1) Each mixture was then transferred to a 250 mL lab reactor via a series of 0.45 and 0.22 μm HPLC filters for polish filtration, and 2×1 mL water was used for rinsing (total amount water added: 19 mL, which gives an ethanol amount of 76 mL for an ethanol/water end-ratio of 80/20). After heating of the mixture to correct jacket temperature (35° C., 45° C., 50° C. or 55° C.), ethanol (76 mL) was charged for 1, 2.5 or 4 hours. A syringe pump connected to a 50-mL plastic syringe was used for the charging. Linear cooling profiles were then applied and all examples were cooled at a rate of 0.333° C./min down to 15° C. All mixtures were stirred for an additional 10 minutes at 15° C. before isolation of the solid on a P3 glass filter funnel. In example 8, the same conditions as described above were used, but the speed of the stirrer of the lab reactor was doubled. In example 10, the same conditions as described above were used, but a type different stirrer was used that increased the mass transfer in the lab reactor.

[6] = 5 g lab-scale Process C crystallization; for D10 (μm) / D50 (μm) / D90 (μm): ethanol charge time and temperature vary per example; for >100 (%): particles greater than 100 μm; for <2 (%): particles less than 2 μm; for D90/D50: ratio of D90 to D50
Description: Particle size distribution (PSD) was analyzed by LALLS on a commercial laser particle size analyzer (Malvern Instruments Ltd. Mastersizer 3000™) instrument, equipped with a 300 mm reverse Fourier lens with a small volume automated liquid sample dispersion unit (Malvern, Hydro MV™). The sample dispersion medium was paraffin oil. Samples taken from each of the batches were analyzed sequentially. Each sample was introduced directly into the small volume sample dispersion unit to study the disaggregation under influence of stirring only. Thereafter sonication was applied at low power (20%) in 60 seconds. This was repeated until a stable reading was obtained.
as §1

Substance | TM2 (% w/w) [5] | TM3 (% w/w) [5] | Total impurities (% w/w) [5] | D10 (μm) [6] | D50 (μm) [6] | D90 (μm) [6] | >100 (%) [6] | <2 (%) [6] | D90/D50 [6] | also measured
bis-choline tetrathiomolybdate [Batch A-1] |  |  |  |  |  |  |  |  |  | SSA (m^2/g) ([1]; listed as A-1): 0.52 m^2/g; Dx (10)/μm ([2]; listed as A-1): 10.3 μm; Dx (50)/μm ([2]; listed as A-1): 59.4 μm; Dx (90)/μm ([2]; listed as A-1): 503 μm; >100 μm (%) ([2]; listed as A-1): 42.1%; <2 μm (%) ([2]; listed as A-1): 2%
bis-choline tetrathiomolybdate [Batch A-2] |  |  |  |  |  |  |  |  |  | SSA (m^2/g) ([1]; listed as A-2): 0.26 m^2/g; Dx (10)/μm ([2]; listed as A-2): 25.5 μm; Dx (50)/μm ([2]; listed as A-2): 86.6 μm; Dx (90)/μm ([2]; listed as A-2): 442.0 μm; >100 μm (%) ([2]; listed as A-2): 46.8%; <2 μm (%) ([2]; listed as A-2): 0.0%; Mo2S6O2 dimer (area %) ([3]; Day 3, 40° C. / 75% RH): 0.09 area %; TM2 (area %) ([3]; Day 3, 40° C. / 75% RH): 2.38 area %; TM3 (area %) ([3]; Day 3, 40° C. / 75% RH): 2.78 area %; Total impurities (area %) ([3]; Day 3, 40° C. / 75% RH): 5.54 area %; TM2 (area %) ([3]; Initial): 0.29 area %; TM3 (area %) ([3]; Initial): 2.04 area %; Total impurities (area %) ([3]; Initial): 2.34 area %; Estimated Crystallinity (%) [4]: 86%
bis-choline tetrathiomolybdate [Batch C-3] |  |  |  |  |  |  |  |  |  | SSA (m^2/g) ([1]; listed as C-3): 0.12 m^2/g; Dx (10)/μm ([2]; listed as C-3): 25.7 μm; Dx (50)/μm ([2]; listed as C-3): 52.9 μm; Dx (90)/μm ([2]; listed as C-3): 97.7 μm; >100 μm (%) ([2]; listed as C-3): 9.2%; <2 μm (%) ([2]; listed as C-3): 1.0%
bis-choline tetrathiomolybdate [compound 1] | <0.05 % w/w | 0.18 % w/w | 0.18 % w/w | 21 μm | 45 μm | 77 μm | 1.4% | 1.3% | 1.7 | 
bis-choline tetrathiomolybdate [compound 2] | 0.13 % w/w | 0.45 % w/w | 0.57 % w/w | 25 μm | 46 μm | 79 μm | 1.9% | 1.4% | 1.7 | 
bis-choline tetrathiomolybdate [compound 3] | <0.05 % w/w | 0.14 % w/w | 0.14 % w/w | 37 μm | 79 μm | 135 μm | 30% | 0.4% | 1.7 | 
bis-choline tetrathiomolybdate [compound 4] | 0.19 % w/w | 0.46 % w/w | 0.70 % w/w | 33 μm | 56 μm | 92 μm | 5.8% | 0.8% | 1.6 | 
bis-choline tetrathiomolybdate [compound 5] | <0.05 % w/w | 0.18 % w/w | 0.18 % w/w | 38 μm | 80 μm | 136 μm | 31% | 0.0% | 1.7 | 
bis-choline tetrathiomolybdate [compound 6] | <0.05 % w/w | 0.19 % w/w | 0.19 % w/w | 42 μm | 87 μm | 148 μm | 38% | 0.0% | 1.7 | 
bis-choline tetrathiomolybdate [compound 7] | <0.05 % w/w | 0.18 % w/w | 0.18 % w/w | 41 μm | 85 μm | 143 μm | 36% | 0.0% | 1.7 | 
bis-choline tetrathiomolybdate [compound 8] | <0.05 % w/w | 0.18 % w/w | 0.18 % w/w | 57 μm | 102 μm | 164 μm | 52% | 0.0% | 1.6 | 
bis-choline tetrathiomolybdate [compound 9] | 0.12 % w/w | 0.25 % w/w | 0.37 % w/w | 33 μm | 61 μm | 101 μm | 11% | 1.0% | 1.7 | 
bis-choline tetrathiomolybdate [compound 10] | <0.05% w/w | 0.16 % w/w | 0.16 % w/w | 50 μm | 95 μm | 161 μm | 45% | 0.0% | 1.7 | 
